{
  "source": "patent US20170102375A1",
  "about": "“METHODS FOR DETERMINING THE EFFECTS OF COMPOUNDS ON JAK/STAT ACTIVITY” (Nodality, Inc., priority 2009, published 2017)",
  "key": {"[1]": {"tested_on": "IL-27-induced p-Stat readout", "assay": "IL-27-induced JAK/STAT signaling in AML patient cells, phosphoflow p-Stat1, p-Stat3, p-Stat5", "assay_type": "cell-based, human", "procedure": "(§1) Cells from three patients were stimulated with the cytokines IL-27 and G-CSF to determine whether these modulators could induce JAK/STAT pathway activation across cells from different AML patient donors. IL-27 has been reported to signal through JAK1, JAK2, and Tyk2, leading to the phosphorylation of Stat1, Stat3, and Stat5. G-CSF has been reported to signal through JAK2 and Tyk2 and leads to the phosphorylation of Stat3. […] One hour after incubation, the cells were stimulated with IL-27 and G-CSF. After stimulation cell signaling was measured by multiparametric phosphoflow cytometry to assess p-Stat1, p-Stat3 and p-Stat5 levels.\n(§2) The samples were gated on cell populations. Incubation with fluorochrome-conjugated monoclonal antibodies that recognize lineage specific epitopes on the cell surface delineated at least 3 cell subpopulations in patient samples. […] Three cell subsets were examined: (1) CD34−/CD117med, (2) CD34+/CD117med, (3) CD34−/CD117−. “CD117” in FIG. 18 is the same as “ckit” in FIG. 19. “Med” indicates a medium amount of expression with respect to other cell subsets that express more or less CD117."}, "[2]": {"tested_on": "p-STAT5 in T cells", "assay": "multiparameter phosphoflow, p-STAT5 in T cells gated from 90% whole blood", "assay_type": "cell-based", "description": "A dose series of treatments is performed for each compound, ranging from doses as low as no compound, up to doses in the ranges of 1×10° nM, 1×10^1 nM, 1×10^2 nM, 1×10^3 nM, and 1×10^4 nM. Cell signaling is measured by multiparametric phosphoflow cytometry to assess p-Stat3, pERK, and p-Stat5 levels. The samples are gated on cell populations. This method may be used, for example, to measure JAK/STAT signaling activity in gated T cells based on levels p-Stat5 (See FIG. 12). The relationship between dosing and signaling activity can be used to calculate the IC50 for each compound (See, e.g. FIG. 12)."}, "[3]": {"tested_on": "G-CSF-induced p-Stat readout", "assay": "G-CSF-induced JAK/STAT signaling in AML patient cells, phosphoflow p-Stat1, p-Stat3, p-Stat5", "assay_type": "cell-based, human", "procedure": "as §1, §2"}, "[4]": {"tested_on": "pAKT (S473)", "assay": "phosphoflow, evoked pAKT (S473) in B-cells gated from PBMC sample, IC50 from sub-sampled cells", "assay_type": "cell-based", "conditions": "repeated 100 times, read-out: log10(IC50) (converted)", "procedure": "In some embodiments, the invention provides tools for making robust measurements of very small subpopulations of cells. […] The IC50 for […] was calculated using pAKT measurements from 3,000 cells. […] The median fluorescence index (MFI) was then computed only from these cells and used to estimate the IC50 value. This process was repeated 100 times at each sampling level to generate a list of IC50 values. If a small number of cells is sufficiently representative of the larger population, all the IC50 values are expected to be similar to each other, and therefore the 95% confidence interval will remain small. […] For samples of 40 cells and fewer, the IC50 became increasingly inconsistent. Depending on experimental conditions, such as cell type, nodes assayed, the percentage of cells that respond to the modulator, detection methods, and the strength of the signal, the minimal number of cells needed to obtain statistically relevant measurements may vary."}, "[5]": {"tested_on": "p-ERK in monocytes", "assay": "multiparameter phosphoflow, p-ERK stimulated by GM-CSF in monocytes from PBMCs", "assay_type": "cell-based", "conditions": "treated PBMCs, off-target ERK/MAPK (FIG. 16)", "procedure": "(§3) (See FIG. 11; Table 7). […] The samples are gated on cell populations.\n(§4) As shown in FIGS. 16-17, the methods of the invention can also be used to identify off-target effects of drug treatment. Muliparameter phosphoflow is used to detect the effects of compounds selected from the list in Table 8 on signaling pathways other than JAK/STAT. In FIG. 16, when PBMCs are treated with the JAK/STAT inhibitor Pyridone 6 (“Jak Inhibitor I,” Calbiochem), pERK levels are reduced in monocytes. […] Thus, the methods of the invention can identify both inhibition and induction of off-target signaling pathways, in this example, the ERK/MAPK pathway. The methods of the invention can also be used to identify off-target effects of JAK/STAT inhibitors on other pathways."}, "[6]": {"tested_on": "p-ERK in B cells", "assay": "multiparameter phosphoflow, p-ERK stimulated by CD40L in B-cells from PBMCs", "assay_type": "cell-based", "conditions": "treated PBMCs, off-target ERK/MAPK (FIG. 16)", "procedure": "as §3, §4"}, "[7]": {"tested_on": "pNFkB65", "assay": "multiparameter phosphoflow, NFkB signaling in stimulated B cells", "assay_type": "cell-based", "conditions": "stimulated B cells (FIG. 17)", "procedure": "as §4"}, "[8]": {"tested_on": "CML patients", "conditions": "CML patients treated at the early stages of the disease; cited from earlier work"}},
  "note": "Read-outs that look alike come from different tables or passages of the source.",
  "data": [
    {"smiles": "C[C@@H]1CCN(C(=O)CC#N)C[C@@H]1N(C)c1ncnc2[nH]ccc12", "note": "[CP-690550]", "values": [
      {"measurement": "inhibition of IL-27-induced p-Stat readout", "setting": "[1]; 333 nM, 1 h pre-incubation, cells of two AML patient donors with IL-27-induced signaling", "result": "completely"},
      {"measurement": "effect in cells from the third patient", "setting": "[1]; AML patient cells in which IL-27 and G-CSF induced no signaling response", "result": "no effect"},
      {"measurement": "inhibition of basal phosphorylation levels in the p-Stat readout", "setting": "[1]; AML patient cells, IL-27 experiment (FIG. 20)", "result": "no inhibition"},
      {"measurement": "potency in whole blood", "setting": "[2]; 90% whole blood gated on T cells", "result": "retains a high potency"},
      {"measurement": "inhibition of G-CSF-induced p-Stat readout", "setting": "[3]; 3333 nM, 1 h pre-incubation, cells of two AML patient donors with G-CSF-induced signaling", "result": "completely"},
      {"measurement": "inhibition of basal phosphorylation levels in the p-Stat readout", "setting": "[3]; AML patient cells, G-CSF experiment (FIG. 21)", "result": "no inhibition"}
    ]},
    {"smiles": "O=c1cc(N2CCOCC2)oc2c(-c3ccccc3)cccc12", "note": "[LY940002]", "values": [
      {"measurement": "IC50", "setting": "[4]; simulation: 10 cells sampled", "result": 4.79, "unit": "nM"},
      {"measurement": "IC50", "setting": "[4]; simulation: 20 cells sampled", "result": 79.4, "unit": "nM"},
      {"measurement": "IC50", "setting": "[4]; simulation: 40 cells sampled", "result": 61.7, "unit": "nM"},
      {"measurement": "IC50", "setting": "[4]; simulation: 80 cells sampled", "result": 479, "unit": "nM"},
      {"measurement": "IC50", "setting": "[4]; simulation: 160 cells sampled", "result": 479, "unit": "nM"},
      {"measurement": "IC50", "setting": "[4]; simulation: 320 cells sampled", "result": 490, "unit": "nM"},
      {"measurement": "IC50", "setting": "[4]; simulation: 640 cells sampled", "result": 490, "unit": "nM"},
      {"measurement": "IC50", "setting": "[4]; simulation: 1280 cells sampled", "result": 479, "unit": "nM"},
      {"measurement": "IC50", "setting": "[4]; simulation: 2560 cells sampled", "result": 490, "unit": "nM"},
      {"measurement": "IC50", "setting": "[4]; simulation: MFI from 5 cells sampled from 3,000 cell data set", "result": 0.302, "unit": "nM"}
    ]},
    {"smiles": "CC(C)(C)c1nc2c3cc[nH]c(=O)c3c3cc(F)ccc3c2[nH]1", "note": "[Pyridone 6]", "values": [
      {"measurement": "decrease of potency in whole blood versus PBMCs", "setting": "[2]; 90% whole blood gated on T cells vs stimulated PBMCs", "result": 70, "unit": "fold"},
      {"measurement": "effect on pERK levels in monocytes", "setting": "[5]", "result": "reduced"},
      {"measurement": "effect on pERK levels in B cells", "setting": "[6]", "result": "does not reduce"}
    ]},
    {"smiles": "CCOC(=O)c1cn(-c2c(F)c(F)c(C#N)c(F)c2F)c2c(F)c(F)c(F)cc2c1=O", "note": "[Stat3 Inhibitor VII]", "values": [
      {"measurement": "effect on NFkB signaling, levels of pNFkB65", "setting": "[7]", "result": "inhibits NFkB signaling"}
    ]},
    {"smiles": "CC(C)(O)/C=C/C(=O)[C@](C)(O)[C@H]1[C@H](O)C[C@@]2(C)[C@@H]3CC=C4[C@@H](C=C(O)C(=O)C4(C)C)[C@]3(C)C(=O)C[C@]12C", "note": "[cucurbitacin I]", "values": [
      {"measurement": "effect on pERK levels in monocytes", "setting": "[5]", "result": "increased"},
      {"measurement": "effect on pERK levels in B cells", "setting": "[6]", "result": "increased"}
    ]},
    {"smiles": "Cc1ccc(NC(=O)c2ccc(CN3CCN(C)CC3)cc2)cc1Nc1nccc(-c2cccnc2)n1", "note": "[imatinib]", "values": [
      {"measurement": "complete remission, patients", "setting": "[8]", "result": 97, "unit": "%"}
    ]}
  ]
}
